Where “and” joins values, the source holds several entries; their conditions need not be identical. Identical values can stand only once. Like-named read-outs stand apart in the source and are kept apart here.
What was measured:
[1] = target: T1, PBRM1-BD2 (Homo sapiens (Human), UniProt Q86U86); experiment: biochemical; assay type: binding
Experimental: DSF measures protein unfolding by monitoring the fluorescence of the SYPRO Orange dye as a function of temperature; positive thermal shifts indicate ligand binding induced stabilization of the protein.
(§1) Differential Scanning Fluorimetry (DSF). Bromodomain DSF Tm assays were performed using an Mx3005P (Stratagene) PCR detection system and low profile 96-well PCR plates (UltraFlux, Flat Top, SSI 3400-00S). […] The temperature was raised by 1° C./min from 25-95° C., and fluorescence readings were taken at each interval. Melting curves were analyzed using our online interactive fitting tool for thermofluor experiments (https://dsf-analysis.herokuapp.com/DSF-analysis) and plotted using GraphPad Prism.

[2] = Solubility at concentrations tested in the AlphaScreen assay
Experimental: AlphaScreen. […] All reagents were diluted in Epigenetic Buffer (5×), 2 μM TCEP, and 0.5% v/v Tween-20. The assay used a final volume of 40 μL. Stock solutions of inhibitors in DMSO were made at eight different concentrations (100 mM, 10 mM, 1 mM, 300 μM, 100 μM, 30 μM, 10 μM, 3 μM). 0.4 μL of inhibitor DMSO stocks were further diluted to 10 μL in the buffer. […] The mixture (40 μL) was further incubated for 1 h in a dark room and the luminescence was read on a BioTek Cytation5 Imaging Reader using an AlphaScreen detection filter cube. Data was plotted in GraphPad Prism using non-linear regression dose-response three variable slopes.

[3] = target: BRD4-BD2 (Homo sapiens (Human), UniProt O60885); experiment: DSF selectivity profiling; assay type: binding
Experimental: as §1

[4] = target: BRDT-BD1 (Homo sapiens (Human), UniProt Q58F21); experiment: DSF selectivity profiling; assay type: binding
Experimental: as §1

[5] = target: BRD3-BD1 (Homo sapiens (Human), UniProt Q15059); experiment: DSF selectivity profiling; assay type: binding
Experimental: as §1

[6] = target: SMARCA2 (Homo sapiens (Human), UniProt P51531); experiment: DSF selectivity profiling; assay type: binding
Experimental: as §1

[7] = target: p300 (Homo sapiens (Human), UniProt Q09472); experiment: DSF selectivity profiling; assay type: binding
Experimental: as §1

[8] = target: BRD2-BD2 (Homo sapiens (Human), UniProt P25440); experiment: DSF selectivity profiling; assay type: binding
Experimental: as §1

[9] = target: BRD7 (Homo sapiens (Human), UniProt Q9NPI1); experiment: DSF selectivity profiling; assay type: binding
Experimental: as §1

[10] = target: BRD3-BD2 (Homo sapiens (Human), UniProt Q15059); experiment: DSF selectivity profiling; assay type: binding
Experimental: as §1

[11] = target: CECR2 (Homo sapiens (Human), UniProt Q9BXF3); experiment: DSF selectivity profiling; assay type: binding
Experimental: as §1

[12] = target: BRD4-BD1 (Homo sapiens (Human), UniProt O60885); experiment: DSF selectivity profiling; assay type: binding
Experimental: as §1

[13] = target: TRIM33A (Homo sapiens (Human), UniProt Q9UPN9); experiment: DSF selectivity profiling; assay type: binding
Experimental: as §1

[14] = target: ASH1L (Homo sapiens (Human), UniProt Q9NR48); experiment: DSF selectivity profiling; assay type: binding
Experimental: as §1

[15] = target: PCAF (Homo sapiens (Human), UniProt Q92831); experiment: DSF selectivity profiling; assay type: binding
Experimental: as §1

[16] = target: CREBBP (Homo sapiens (Human), UniProt Q92793); experiment: DSF selectivity profiling; assay type: binding
Experimental: as §1

[17] = target: T1, PBRM1-BD2; experiment: AlphaScreen competition assay, His6-tagged PBRM1-BD2 and biotinylated H3K14ac peptide; assay type: binding; conditions: 0.2 μM His6-PBRM1-BD2, 0.1 μM biotinylated H3K14ac peptide
[18] = target: PBRM1-BD4 (Homo sapiens (Human), UniProt Q86U86); experiment: DSF selectivity profiling; assay type: binding
Experimental: as §1

[19] = target: PBRM1-BD1 (Homo sapiens (Human), UniProt Q86U86); experiment: DSF selectivity profiling; assay type: binding
Experimental: as §1

[20] = target: PBRM1-BD6 (Homo sapiens (Human), UniProt Q86U86); experiment: DSF selectivity profiling; assay type: binding
Experimental: as §1

[21] = target: PBRM1-BD3 (Homo sapiens (Human), UniProt Q86U86); experiment: DSF selectivity profiling; assay type: binding
Experimental: as §1

[22] = target: SMARCA4 (Homo sapiens (Human), UniProt P51532); experiment: DSF selectivity profiling; assay type: binding
Experimental: as §1

[23] = target: PBRM1-BD5 (Homo sapiens (Human), UniProt Q86U86); conditions: DSF
[24] = test system: PC3 cells; experiment: Cell viability assay (CellTiter-Glo); assay type: cell-based, human; conditions: 10, 1 and 0.1 μM
Experimental: (§2) Cell Viability Assays. Cells were seeded in a 96-well plate and incubated for 12-24 h prior to initial treatment. The number of cells per well was chosen empirically based on cell growth rates (LNCaP-5,000 cells/well, PC3 and RWPE-1-3,000 cells per well, HEK293T-1,000 cells/well). Cells were treated with either DMSO control or serial dilutions of inhibitors and media with compound was refreshed every 48 h.

[25] = test system: RWPE-1 cells; experiment: Cell viability assay (CellTiter-Glo); assay type: cell-based, human; conditions: 10, 1 and 0.1 μM
Experimental: as §2

[26] = read-out: PBRM1-BD2 ΔTm, DSF, 10 μM protein, 100 μM inhibitor, vs apoprotein

T1 sequence (Q86U86 177-287): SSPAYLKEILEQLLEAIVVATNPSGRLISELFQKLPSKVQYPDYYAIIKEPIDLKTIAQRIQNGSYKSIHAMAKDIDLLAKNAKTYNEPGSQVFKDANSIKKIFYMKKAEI
Sequence of TRIM33A (Q9UPN9 957-1080): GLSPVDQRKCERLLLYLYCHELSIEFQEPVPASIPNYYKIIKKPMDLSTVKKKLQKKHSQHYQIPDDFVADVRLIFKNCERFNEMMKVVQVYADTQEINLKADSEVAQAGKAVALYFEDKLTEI
Sequence of SMARCA2 (P51531 1378-1506): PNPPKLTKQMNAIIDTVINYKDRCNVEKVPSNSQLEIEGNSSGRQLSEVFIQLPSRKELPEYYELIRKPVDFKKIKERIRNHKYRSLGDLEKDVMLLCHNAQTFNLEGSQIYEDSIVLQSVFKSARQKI
Sequence of p300 (Q09472 1049-1156): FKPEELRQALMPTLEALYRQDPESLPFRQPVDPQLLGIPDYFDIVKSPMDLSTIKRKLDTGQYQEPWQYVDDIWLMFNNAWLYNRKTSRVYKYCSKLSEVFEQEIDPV
Sequence of BRD7 (Q9NPI1 131-235): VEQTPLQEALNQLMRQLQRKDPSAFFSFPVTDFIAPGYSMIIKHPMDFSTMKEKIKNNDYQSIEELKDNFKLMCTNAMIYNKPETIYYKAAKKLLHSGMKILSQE
Sequence of CECR2 (Q9BXF3 434-538): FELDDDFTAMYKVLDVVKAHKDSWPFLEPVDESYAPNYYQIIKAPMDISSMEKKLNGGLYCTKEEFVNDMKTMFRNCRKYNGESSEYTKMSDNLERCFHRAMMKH
Sequence of PCAF (Q92831 723-827): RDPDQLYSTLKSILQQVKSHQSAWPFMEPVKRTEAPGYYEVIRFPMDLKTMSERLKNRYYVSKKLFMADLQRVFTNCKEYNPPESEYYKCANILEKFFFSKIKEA
Sequence of BRD3-BD1 (Q15059 34-140): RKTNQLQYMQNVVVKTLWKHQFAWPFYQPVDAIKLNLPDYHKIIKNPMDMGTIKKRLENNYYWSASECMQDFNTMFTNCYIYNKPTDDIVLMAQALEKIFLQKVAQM
Sequence of BRD2-BD2 (P25440 344-453): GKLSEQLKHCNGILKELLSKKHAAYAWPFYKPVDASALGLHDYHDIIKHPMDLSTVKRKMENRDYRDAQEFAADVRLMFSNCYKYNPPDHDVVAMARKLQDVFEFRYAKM
Sequence of BRD3-BD2 (Q15059 306-415): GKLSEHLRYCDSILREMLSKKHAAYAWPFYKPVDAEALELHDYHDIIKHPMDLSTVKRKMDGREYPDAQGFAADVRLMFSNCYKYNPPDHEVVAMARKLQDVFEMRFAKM
Sequence of CREBBP (Q92793 1085-1192): as the sequence (Q09472 1049-1156) above, with S47N, I73V, Y93F, S98A counted along it
Sequence of PBRM1-BD4 (Q86U86 518-625): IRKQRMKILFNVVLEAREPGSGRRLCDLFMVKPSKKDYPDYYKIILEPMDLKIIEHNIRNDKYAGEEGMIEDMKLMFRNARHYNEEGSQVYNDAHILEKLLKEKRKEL
Sequence of PBRM1-BD5 (Q86U86 653-763): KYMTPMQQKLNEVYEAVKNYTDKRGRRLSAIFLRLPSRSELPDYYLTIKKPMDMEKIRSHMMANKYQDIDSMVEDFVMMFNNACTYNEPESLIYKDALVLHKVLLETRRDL
Sequence of SMARCA4 (P51532 1453-1564): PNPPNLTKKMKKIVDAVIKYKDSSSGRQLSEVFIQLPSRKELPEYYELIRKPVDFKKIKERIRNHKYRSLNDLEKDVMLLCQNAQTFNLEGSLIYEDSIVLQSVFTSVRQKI
Sequence of PBRM1-BD1 (Q86U86 41-151): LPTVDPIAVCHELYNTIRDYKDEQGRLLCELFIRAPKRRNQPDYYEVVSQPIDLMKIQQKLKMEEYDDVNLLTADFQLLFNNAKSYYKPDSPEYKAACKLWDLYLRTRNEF
Sequence of PBRM1-BD3 (Q86U86 381-487): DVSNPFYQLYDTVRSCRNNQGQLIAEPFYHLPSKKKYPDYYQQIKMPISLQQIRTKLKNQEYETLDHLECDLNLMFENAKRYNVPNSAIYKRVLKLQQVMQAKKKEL
Sequence of PBRM1-BD6 (Q86U86 769-879): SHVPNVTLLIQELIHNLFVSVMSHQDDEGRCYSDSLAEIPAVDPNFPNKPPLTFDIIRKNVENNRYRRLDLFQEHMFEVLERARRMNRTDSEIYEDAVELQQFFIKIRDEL

O=C1NC(c2c(F)cccc2Cl)Nc2cccc(Cl)c21 (stereo not shown) [Compound 11, 5-Chloro-2-(2-chloro-6-fluorophenyl)-2,3-dihydroquinazolin-4(1H)-one]
ΔTm at 100 µM [1, 26]: 4.4 ± 0.4 °C

Cc1cc(C)c(C2NC(=O)c3c(Cl)cccc3N2)c(C)c1 (stereo not shown) [Compound 22, 5-Chloro-2-(2,4,6-trimethylphenyl)-2,3-dihydroquinazolin-4(1H)-one]
solubility in the AlphaScreen assay [2]: solubility issues

Cc1cccc(C)c1C1NC(=O)c2c(Cl)cccc2N1 (stereo not shown) [Compound 26, 5-Chloro-2-(2,6-dimethylphenyl)-2,3-dihydroquinazolin-4(1H)-one]
BRD4-BD2 ΔTm [3]: −4.4 °C
BRDT-BD1 ΔTm [4]: −0.6 °C
BRD3-BD1 ΔTm [5]: 0.0 °C
SMARCA2 ΔTm [6]: 0.5 °C
p300 ΔTm [7]: 0.2 °C
BRD2-BD2 ΔTm [8]: 0.5 °C
BRD7 ΔTm [9]: 0.1 °C
BRD3-BD2 ΔTm [10]: 0.3 °C
CECR2 ΔTm [11]: 1.3 °C
BRD4-BD1 ΔTm [12]: 0 °C
TRIM33A ΔTm [13]: 0.5 °C
ASH1L ΔTm [14]: −0.8 °C
PCAF ΔTm [15]: 0.6 °C
CREBBP ΔTm [16]: 0.2 °C

COc1cccc2c1C(=O)NC(c1ccccc1C)N2 (stereo not shown) [Compound 31, 5-Methoxy-2-(2-methylphenyl)-2,3-dihydroquinazolin-4(1H)-one]
ΔTm at 100 µM [1, 26]: 0 °C
IC50 [17]: > 70 µM

Cc1cccc(C2NC(=O)c3c(Br)cccc3N2)c1 (stereo not shown) [Compound 34, 5-Bromo-2-(3-methylphenyl)-2,3-dihydroquinazolin-4(1H)-one]
BRD4-BD2 ΔTm [3]: −1.1 °C
PBRM1-BD4 ΔTm [18]: 0.2 °C
BRDT-BD1 ΔTm [4]: −0.4 °C
PBRM1-BD1 ΔTm [19]: 1.4 °C
BRD3-BD1 ΔTm [5]: 0.4 °C
SMARCA2 ΔTm [6]: 0.3 °C
PBRM1-BD6 ΔTm [20]: −2.4 °C
p300 ΔTm [7]: −0.1 °C
PBRM1-BD3 ΔTm [21]: 0.6 °C
BRD2-BD2 ΔTm [8]: 0.5 °C
BRD7 ΔTm [9]: −0.4 °C
BRD3-BD2 ΔTm [10]: 0.5 °C
CECR2 ΔTm [11]: −0.6 °C
BRD4-BD1 ΔTm [12]: 0.3 °C
TRIM33A ΔTm [13]: 0.1 °C
ASH1L ΔTm [14]: −0.4 °C
PCAF ΔTm [15]: 0.6 °C
CREBBP ΔTm [16]: −0.2 °C
SMARCA4 ΔTm [22]: −0.2 °C
PBRM1-BD2 ΔTm ([1]; DSF, 10 μM protein, 100 μM inhibitor, vs apoprotein): 6.4 °C and 6.4 ± 0.2 °C
ΔTm at 100 µM [1, 26]: > 6.2 °C
PBRM1-BD5 ΔTm [23]: ~1.5 °C
growth inhibition of PC3 cells [24]: do not inhibit the growth of PC3 and RWPE1 at tested concentrations
growth inhibition of RWPE1 cells [25]: do not inhibit the growth of PC3 and RWPE1 at tested concentrations

O=C(O)c1ccccc1Nc1cc(Cl)ccc1C(=O)O [Compound 37, 2-((2-Carboxyphenyl)amino)-4-chlorobenzoic acid]
ΔTm at 100 µM ([1]; read-out: PBRM1-BD2 ΔTm): 0.3 ± 0.02 °C
IC50 [17]: > 250 µM

O=C(O)c1ccc(Cl)c2c(=O)c3ccccc3[nH]c12 [Compound 38, 1-Chloro-9-oxo-9,10-dihydroacridine-4-carboxylic acid]
ΔTm at 100 µM [1, 26]: 0 °C
IC50 [17]: > 250 µM

Source: patent publication US20240190828A1, “Small Molecule Inhibitors of PBRM1-BD2” (The Medical College of Wisconsin, Inc., priority 2021, published 2024)
